Data as given in PMC5072426, “Inhibition of cathepsin B by caspase-3 inhibitors blocks programmed cell death in Arabidopsis” (Cell Death and Differentiation, 2016).
Peptide text beside a SMILES is read from it.

Target: T1, recombinant AtCathB3 (Arabidopsis cathepsin B3) (Arabidopsis thaliana, UniProt Q94K85)
T1 construct: gene CATHB3; 25-residue signal peptide removed; N-terminal cherrytag (11 kDa), C-terminal 6xHis; secreted from baculovirus-infected insect cells (Sf9/Hi-5); N-glycosylated
T1 sequence (Q94K85 26-359): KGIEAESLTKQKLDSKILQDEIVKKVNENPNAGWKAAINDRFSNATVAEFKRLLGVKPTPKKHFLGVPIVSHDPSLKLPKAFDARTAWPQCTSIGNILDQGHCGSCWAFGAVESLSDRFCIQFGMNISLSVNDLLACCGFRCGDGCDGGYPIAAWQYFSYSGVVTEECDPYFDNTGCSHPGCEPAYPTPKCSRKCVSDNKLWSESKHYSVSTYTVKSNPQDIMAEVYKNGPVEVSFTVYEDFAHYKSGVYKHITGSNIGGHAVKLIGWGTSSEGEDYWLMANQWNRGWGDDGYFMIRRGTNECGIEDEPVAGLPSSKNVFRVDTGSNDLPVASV
Experiment: fluorogenic DEVDase assay, inhibitor pre-incubated […] min
Type: biochemical

Molecule `CCCNC(=O)[C@H]1O[C@@H]1C(=O)N[C@H](C(=O)N1CCC[C@H]1C(=O)O)[C@@H](C)CC` [CA-074] has a remaining activity at 1000 µM of 0%.
In the case of `CC(=O)N[C@@H](CC(C)C)C(=O)N[C@H](C(=O)N[C@H](C=O)CCCCN)C(C)C` [LVK-CHO, Ac-LVK-CHO] (Ac-Leu-Val-Lys-aldehyde), the remaining activity at 100 µM is reported as 0%.
Work on `CC(C)[C@H](NC(=O)[C@H](CCC(=O)O)NC(=O)[C@H](CC(=O)O)NC(=O)OCc1ccccc1)C(=O)N[C@H](C=O)CC(=O)O` [DEVD-CHO, Z-DEVD-CHO] yielded a remaining activity at 100 µM of 0.3%.
In the case of `CC(=O)N[C@@H](Cc1ccc(O)cc1)C(=O)N[C@H](C(=O)N[C@@H](C)C(=O)N[C@H](C=O)CC(=O)O)C(C)C` [YVAD-CHO, Ac-YVAD-CHO], the remaining activity at 100 µM is reported as 43.3 ± 0.6%.
